Assay results published in patent US9850283B2, “Macrocyclic inhibitors of the PD-1/PD-L1 and CD80(B7-1)/PD-L1 protein/protein interactions” (BRISTOL-MYERS SQUIBB COMPANY, priority 2013, dated 2017).
Positions of bridges follow the written chain, without caps; N, C: chain ends. Non-standard residues stand in square brackets, D forms with d. Residues, ends and D or L forms follow the SMILES beside them. Phe(4-guanidino) = N=C(N)Nc1ccc(C[C@H](N)C(=O)O)cc1; Phe(3,4-Cl2) = N[C@@H](Cc1ccc(Cl)c(Cl)c1)C(=O)O; Phe(3-CF3) = N[C@@H](Cc1cccc(C(F)(F)F)c1)C(=O)O; Phe(4-CONH2) = NC(=O)c1ccc(C[C@H](N)C(=O)O)cc1; Phe(2,4-Cl2) = N[C@@H](Cc1ccc(Cl)cc1Cl)C(=O)O; Phe(3,5-F2) = N[C@@H](Cc1cc(F)cc(F)c1)C(=O)O; Phe(4-CH2NH2) = NCc1ccc(C[C@H](N)C(=O)O)cc1; Phe(3-CN) = N#Cc1cccc(C[C@H](N)C(=O)O)c1; Phe(4-Cl) = N[C@@H](Cc1ccc(Cl)cc1)C(=O)O; Phe(4-NH2) = Nc1ccc(C[C@H](N)C(=O)O)cc1; Phe(3-Me) = Cc1cccc(C[C@H](N)C(=O)O)c1; Phe(4-F) = N[C@@H](Cc1ccc(F)cc1)C(=O)O; Hyp = O=C(O)[C@@H]1C[C@@H](O)CN1; NMeNle = CCCC[C@H](NC)C(=O)O; NMeA = CN[C@@H](C)C(=O)O; Dap = NC[C@H](N)C(=O)O

What was measured:
[1] = biological target: T1, Human PD-L1/PD-1 (Homo sapiens, UniProt Q9NZQ7); assay: HTRF PD-1-Ig/PD-L1-His binding assay (human PD-L1); settings: cluster symbol; read-out: HTRF IC50 cluster
T1 construct: made in house; host or cells: HEK293T
T1 sequence (Q9NZQ7 with tags, fused parts or gaps): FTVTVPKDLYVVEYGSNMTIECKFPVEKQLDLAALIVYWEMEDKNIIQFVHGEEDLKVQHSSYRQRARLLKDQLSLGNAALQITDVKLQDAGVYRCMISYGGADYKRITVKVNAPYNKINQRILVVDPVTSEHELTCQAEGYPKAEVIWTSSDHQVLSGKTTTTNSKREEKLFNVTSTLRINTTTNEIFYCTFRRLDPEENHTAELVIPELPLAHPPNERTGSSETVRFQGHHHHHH
Outline: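 Soluble Fc-fused PD-1 and His-tagged PD-L1 (truncated before the transmembrane region) were combined in dPBS with 0.1% (w/v) BSA and 0.05% (v/v) Tween-20. Binding was read by HTRF using europium cryptate anti-Ig antibody (1 nM final) and APC anti-His antibody (20 nM final).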

[2] = biological target: T2, LK35.2-hPD-L1 cells / PE-labeled PD-1-Ig (Homo sapiens, UniProt Q9NZQ7); assay: LK35.2-hPD-L1 cell binding high-content screening assay; assay type: cell-based; settings: cell binding assay, cell line not given; cluster symbol; read-out: CBA IC50 cluster
T2 construct: expressed in transfected cells; host or cells: LK35.2 mouse B cell line
T2 sequence (Q9NZQ7 19-290): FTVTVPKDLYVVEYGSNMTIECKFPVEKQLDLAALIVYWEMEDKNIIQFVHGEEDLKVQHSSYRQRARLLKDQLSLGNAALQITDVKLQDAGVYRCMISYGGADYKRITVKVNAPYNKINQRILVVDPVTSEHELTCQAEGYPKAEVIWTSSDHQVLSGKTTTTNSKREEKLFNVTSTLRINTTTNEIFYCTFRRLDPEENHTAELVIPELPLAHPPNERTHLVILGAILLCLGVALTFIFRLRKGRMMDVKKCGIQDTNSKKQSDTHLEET
Outline: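 Using overnight-cultured LK35.2-hPD-L1 mouse B cells, compound was co-incubated with phycoerythrin-tagged human PD-1-Ig (final 1 nM) at 37 °C for one hour. Unbound label was removed by triple dPBS washing prior to high-content image acquisition and analysis.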

| SMILES | IC50 [1] [nM] | IC50 [2] [nM] |
| --- | --- | --- |
| CCCC[C@H]1C(=O)N(C)[C@@H](CCCC)C(=O)N[C@@H](CCCNC(=N)N)C(=O)N[C@H](C(=O)NCC(N)=O)CSCC(=O)N[C@@H](Cc2ccc(N=C(N)N)cc2)C(=O)N(C)[C@@H](C)C(=O)N[C@@H](CC(N)=O)C(=O)N2CCC[C@H]2C(=O)N[C@@H](Cc2cnc[nH]2)C(=O)N[C@@H](CC(C)C)C(=O)N2C[C@H](O)C[C@H]2C(=O)N[C@@H](Cc2c[nH]c3ccccc23)C(=O)N[C@@H](CO)C(=O)N[C@@H](Cc2c[nH]c3ccccc23)C(=O)N1C [Example 7049] ({CH2CO}-[Phe(4-guanidino)][NMeA]NPHL[Hyp]WSW[NMeNle][NMeNle]RCG-NH2; thioether N-14) | > 30.5 | > 74.3 |
| CCCC[C@H]1C(=O)N(C)[C@@H](CCCC)C(=O)N[C@@H](CCCNC(=N)N)C(=O)N[C@H](C(=O)NCC(N)=O)CSCC(=O)N[C@@H](Cc2cc(F)cc(F)c2)C(=O)N(C)[C@@H](C)C(=O)N[C@@H](CC(N)=O)C(=O)N2CCC[C@H]2C(=O)N[C@@H](Cc2cnc[nH]2)C(=O)N[C@@H](CC(C)C)C(=O)N2C[C@H](O)C[C@H]2C(=O)N[C@@H](Cc2c[nH]c3ccccc23)C(=O)N[C@@H](CO)C(=O)N[C@@H](Cc2c[nH]c3ccccc23)C(=O)N1C [Example 7051] ({CH2CO}-[Phe(3,5-F2)][NMeA]NPHL[Hyp]WSW[NMeNle][NMeNle]RCG-NH2; thioether N-14) | 6.76 to 30.3 | 4.78 to 72.9 |
| CCCC[C@H]1C(=O)N(C)[C@@H](CCCC)C(=O)N[C@@H](CCCNC(=N)N)C(=O)N[C@H](C(=O)NCC(N)=O)CSCC(=O)N[C@@H](Cc2ccc(CN)cc2)C(=O)N(C)[C@@H](C)C(=O)N[C@@H](CC(N)=O)C(=O)N2CCC[C@H]2C(=O)N[C@@H](Cc2cnc[nH]2)C(=O)N[C@@H](CC(C)C)C(=O)N2C[C@H](O)C[C@H]2C(=O)N[C@@H](Cc2c[nH]c3ccccc23)C(=O)N[C@@H](CO)C(=O)N[C@@H](Cc2c[nH]c3ccccc23)C(=O)N1C [Example 7053] ({CH2CO}-[Phe(4-CH2NH2)][NMeA]NPHL[Hyp]WSW[NMeNle][NMeNle]RCG-NH2; thioether N-14) | 6.76 to 30.3 | 4.78 to 72.9 |
| CCCC[C@H]1C(=O)N(C)[C@@H](CCCC)C(=O)N[C@@H](CCCNC(=N)N)C(=O)N[C@H](C(=O)NCC(N)=O)CSCC(=O)N[C@@H](Cc2cccc(C(F)(F)F)c2)C(=O)N(C)[C@@H](C)C(=O)N[C@@H](CC(N)=O)C(=O)N2CCC[C@H]2C(=O)N[C@@H](Cc2cnc[nH]2)C(=O)N[C@@H](CC(C)C)C(=O)N2C[C@H](O)C[C@H]2C(=O)N[C@@H](Cc2c[nH]c3ccccc23)C(=O)N[C@@H](CO)C(=O)N[C@@H](Cc2c[nH]c3ccccc23)C(=O)N1C [Example 7056] ({CH2CO}-[Phe(3-CF3)][NMeA]NPHL[Hyp]WSW[NMeNle][NMeNle]RCG-NH2; thioether N-14) | 6.76 to 30.3 | > 74.3 |
| CCCC[C@H]1C(=O)N(C)[C@@H](CCCC)C(=O)N[C@@H](CCCNC(=N)N)C(=O)N[C@H](C(=O)NCC(N)=O)CSCC(=O)N[C@@H](Cc2cccc(C#N)c2)C(=O)N(C)[C@@H](C)C(=O)N[C@@H](CC(N)=O)C(=O)N2CCC[C@H]2C(=O)N[C@@H](Cc2cnc[nH]2)C(=O)N[C@@H](CC(C)C)C(=O)N2C[C@H](O)C[C@H]2C(=O)N[C@@H](Cc2c[nH]c3ccccc23)C(=O)N[C@@H](CO)C(=O)N[C@@H](Cc2c[nH]c3ccccc23)C(=O)N1C [Example 7058] ({CH2CO}-[Phe(3-CN)][NMeA]NPHL[Hyp]WSW[NMeNle][NMeNle]RCG-NH2; thioether N-14) | 6.76 to 30.3 | > 74.3 |
| CCCC[C@H]1C(=O)N(C)[C@@H](CCCC)C(=O)N[C@@H](CCCNC(=N)N)C(=O)N[C@H](C(=O)NCC(N)=O)CSCC(=O)N[C@@H](Cc2ccc(Cl)c(Cl)c2)C(=O)N(C)[C@@H](C)C(=O)N[C@@H](CC(N)=O)C(=O)N2CCC[C@H]2C(=O)N[C@@H](CN)C(=O)N[C@@H](CC(C)C)C(=O)N2C[C@H](O)C[C@H]2C(=O)N[C@@H](Cc2c[nH]c3ccccc23)C(=O)N[C@@H](CO)C(=O)N[C@@H](Cc2c[nH]c3ccccc23)C(=O)N1C [Example 7063] ({CH2CO}-[Phe(3,4-Cl2)][NMeA]NP[Dap]L[Hyp]WSW[NMeNle][NMeNle]RCG-NH2; thioether N-14) | 0.385 to 6.74 | 4.78 to 72.9 |
| CCCC[C@H]1C(=O)N(C)[C@@H](CCCC)C(=O)N[C@@H](CCCNC(=N)N)C(=O)N[C@H](C(=O)NCC(N)=O)CSCC(=O)N[C@@H](Cc2ccc(N=C(N)N)cc2)C(=O)N(C)[C@@H](C)C(=O)N[C@@H](CC(N)=O)C(=O)N2CCC[C@H]2C(=O)N[C@@H](CN)C(=O)N[C@@H](CC(C)C)C(=O)N2C[C@H](O)C[C@H]2C(=O)N[C@@H](Cc2c[nH]c3ccccc23)C(=O)N[C@@H](CO)C(=O)N[C@@H](Cc2c[nH]c3ccccc23)C(=O)N1C [Example 7064] ({CH2CO}-[Phe(4-guanidino)][NMeA]NP[Dap]L[Hyp]WSW[NMeNle][NMeNle]RCG-NH2; thioether N-14) | > 30.5 | > 74.3 |

Now from value to molecule:

| IC50 [1] [nM] | IC50 [2] [nM] | SMILES |
| --- | --- | --- |
| 0.385 to 6.74 | > 74.3 | CCCC[C@H]1C(=O)N(C)[C@@H](CCCC)C(=O)N[C@@H](CCCNC(=N)N)C(=O)N[C@H](C(=O)NCC(N)=O)CSCC(=O)N[C@@H](Cc2ccc(F)cc2)C(=O)N(C)[C@@H](C)C(=O)N[C@@H](CC(N)=O)C(=O)N2CCC[C@H]2C(=O)N[C@@H](CN)C(=O)N[C@@H](CC(C)C)C(=O)N2C[C@H](O)C[C@H]2C(=O)N[C@@H](Cc2c[nH]c3ccccc23)C(=O)N[C@@H](CO)C(=O)N[C@@H](Cc2c[nH]c3ccccc23)C(=O)N1C [Example 7048] ({CH2CO}-[Phe(4-F)][NMeA]NP[Dap]L[Hyp]WSW[NMeNle][NMeNle]RCG-NH2; thioether N-14) |
| 0.385 to 6.74 | 4.78 to 72.9 | CCCC[C@H]1C(=O)N(C)[C@@H](CCCC)C(=O)N[C@@H](CCCNC(=N)N)C(=O)N[C@H](C(=O)NCC(N)=O)CSCC(=O)N[C@@H](Cc2ccc(C(N)=O)cc2)C(=O)N(C)[C@@H](C)C(=O)N[C@@H](CC(N)=O)C(=O)N2CCC[C@H]2C(=O)N[C@@H](Cc2cnc[nH]2)C(=O)N[C@@H](CC(C)C)C(=O)N2C[C@H](O)C[C@H]2C(=O)N[C@@H](Cc2c[nH]c3ccccc23)C(=O)N[C@@H](CO)C(=O)N[C@@H](Cc2c[nH]c3ccccc23)C(=O)N1C [Example 7050] ({CH2CO}-[Phe(4-CONH2)][NMeA]NPHL[Hyp]WSW[NMeNle][NMeNle]RCG-NH2; thioether N-14) |
| 0.385 to 6.74 | 0.158 to 4.71 | CCCC[C@H]1C(=O)N(C)[C@@H](CCCC)C(=O)N[C@@H](CCCNC(=N)N)C(=O)N[C@H](C(=O)NCC(N)=O)CSCC(=O)N[C@@H](Cc2ccc(Cl)cc2)C(=O)N(C)[C@@H](C)C(=O)N[C@@H](CC(N)=O)C(=O)N2CCC[C@H]2C(=O)N[C@@H](Cc2cnc[nH]2)C(=O)N[C@@H](CC(C)C)C(=O)N2C[C@H](O)C[C@H]2C(=O)N[C@@H](Cc2c[nH]c3ccccc23)C(=O)N[C@@H](CO)C(=O)N[C@@H](Cc2c[nH]c3ccccc23)C(=O)N1C [Example 7054] ({CH2CO}-[Phe(4-Cl)][NMeA]NPHL[Hyp]WSW[NMeNle][NMeNle]RCG-NH2; thioether N-14) |
| 0.385 to 6.74 | 4.78 to 72.9 | CCCC[C@H]1C(=O)N(C)[C@@H](CCCC)C(=O)N[C@@H](CCCNC(=N)N)C(=O)N[C@H](C(=O)NCC(N)=O)CSCC(=O)N[C@@H](Cc2cccc(C)c2)C(=O)N(C)[C@@H](C)C(=O)N[C@@H](CC(N)=O)C(=O)N2CCC[C@H]2C(=O)N[C@@H](Cc2cnc[nH]2)C(=O)N[C@@H](CC(C)C)C(=O)N2C[C@H](O)C[C@H]2C(=O)N[C@@H](Cc2c[nH]c3ccccc23)C(=O)N[C@@H](CO)C(=O)N[C@@H](Cc2c[nH]c3ccccc23)C(=O)N1C [Example 7057] ({CH2CO}-[Phe(3-Me)][NMeA]NPHL[Hyp]WSW[NMeNle][NMeNle]RCG-NH2; thioether N-14) |
| 0.385 to 6.74 | 4.78 to 72.9 | CCCC[C@H]1C(=O)N(C)[C@@H](CCCC)C(=O)N[C@@H](CCCNC(=N)N)C(=O)N[C@H](C(=O)NCC(N)=O)CSCC(=O)N[C@@H](Cc2ccc(N)cc2)C(=O)N(C)[C@@H](C)C(=O)N[C@@H](CC(N)=O)C(=O)N2CCC[C@H]2C(=O)N[C@@H](Cc2cnc[nH]2)C(=O)N[C@@H](CC(C)C)C(=O)N2C[C@H](O)C[C@H]2C(=O)N[C@@H](Cc2c[nH]c3ccccc23)C(=O)N[C@@H](CO)C(=O)N[C@@H](Cc2c[nH]c3ccccc23)C(=O)N1C [Example 7059] ({CH2CO}-[Phe(4-NH2)][NMeA]NPHL[Hyp]WSW[NMeNle][NMeNle]RCG-NH2; thioether N-14) |
| 0.385 to 6.74 | 0.158 to 4.71 | CCCC[C@H]1C(=O)N(C)[C@@H](CCCC)C(=O)N[C@@H](CCCNC(=N)N)C(=O)N[C@H](C(=O)NCC(N)=O)CSCC(=O)N[C@@H](Cc2ccc(OC)cc2)C(=O)N(C)[C@@H](C)C(=O)N[C@@H](CC(N)=O)C(=O)N2CCC[C@H]2C(=O)N[C@@H](Cc2cnc[nH]2)C(=O)N[C@@H](CC(C)C)C(=O)N2C[C@H](O)C[C@H]2C(=O)N[C@@H](Cc2c[nH]c3ccccc23)C(=O)N[C@@H](CO)C(=O)N[C@@H](Cc2c[nH]c3ccccc23)C(=O)N1C [Example 7060] |
| 0.385 to 6.74 | 4.78 to 72.9 | CCCC[C@H]1C(=O)N(C)[C@@H](CCCC)C(=O)N[C@@H](CCCNC(=N)N)C(=O)N[C@H](C(=O)NCC(N)=O)CSCC(=O)N[C@@H](Cc2ccc(Cl)cc2Cl)C(=O)N(C)[C@@H](C)C(=O)N[C@@H](CC(N)=O)C(=O)N2CCC[C@H]2C(=O)N[C@@H](Cc2cnc[nH]2)C(=O)N[C@@H](CC(C)C)C(=O)N2C[C@H](O)C[C@H]2C(=O)N[C@@H](Cc2c[nH]c3ccccc23)C(=O)N[C@@H](CO)C(=O)N[C@@H](Cc2c[nH]c3ccccc23)C(=O)N1C [Example 7062] ({CH2CO}-[Phe(2,4-Cl2)][NMeA]NPHL[Hyp]WSW[NMeNle][NMeNle]RCG-NH2; thioether N-14) |
